In this assay the target is T1, EphB2 (Homo sapiens, UniProt P29323).
T1 sequence (P29323 19-1055): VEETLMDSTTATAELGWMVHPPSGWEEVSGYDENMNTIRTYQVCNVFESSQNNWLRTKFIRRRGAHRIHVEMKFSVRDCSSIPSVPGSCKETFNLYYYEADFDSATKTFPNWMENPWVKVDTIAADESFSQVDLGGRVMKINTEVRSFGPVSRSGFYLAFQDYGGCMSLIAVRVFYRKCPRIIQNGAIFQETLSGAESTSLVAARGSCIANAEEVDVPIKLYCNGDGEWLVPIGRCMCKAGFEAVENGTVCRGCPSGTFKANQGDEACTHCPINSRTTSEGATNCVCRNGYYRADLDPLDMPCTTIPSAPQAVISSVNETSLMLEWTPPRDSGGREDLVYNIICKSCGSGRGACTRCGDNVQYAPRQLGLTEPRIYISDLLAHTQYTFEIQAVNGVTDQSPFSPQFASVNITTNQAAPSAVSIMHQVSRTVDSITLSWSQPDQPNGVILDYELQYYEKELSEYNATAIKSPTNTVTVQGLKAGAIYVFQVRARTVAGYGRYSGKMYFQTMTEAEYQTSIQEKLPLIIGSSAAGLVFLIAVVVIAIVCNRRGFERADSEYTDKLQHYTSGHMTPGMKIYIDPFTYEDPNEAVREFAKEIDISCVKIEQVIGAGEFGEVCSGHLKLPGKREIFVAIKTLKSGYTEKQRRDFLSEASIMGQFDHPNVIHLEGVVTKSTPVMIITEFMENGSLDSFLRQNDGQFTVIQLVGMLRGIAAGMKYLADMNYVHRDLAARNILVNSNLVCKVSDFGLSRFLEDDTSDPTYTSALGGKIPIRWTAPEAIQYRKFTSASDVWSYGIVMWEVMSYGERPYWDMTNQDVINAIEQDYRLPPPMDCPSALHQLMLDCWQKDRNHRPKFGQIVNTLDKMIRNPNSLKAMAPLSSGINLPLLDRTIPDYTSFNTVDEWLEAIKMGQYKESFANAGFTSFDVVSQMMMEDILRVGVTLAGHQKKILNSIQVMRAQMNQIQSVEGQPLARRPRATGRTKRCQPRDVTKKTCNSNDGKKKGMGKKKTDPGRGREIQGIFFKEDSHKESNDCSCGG
Nature of the assay: binding to AX14596 beads (HeLa lysate, SILAC MS). The procedure: Differentially SILAC-encoded cell lysates were either incubated with the inhibitor beads displaying immobilized AX14596 or control resin devoid of ligand. In parallel, the supernatant from the first binding step was subjected to a second incubation with the AX14596 resin (FIG. 4). The resulting three elution fractions were combined, resolved by gel electrophoresis, proteolytically digested and the relative abundance of the retained proteins quantified. Proteins showing considerable binding to the control resin were identified as non-specific interactors and therefore not considered further. […] These target-specific ratios were similar in “label switch” experiments (FIGS. 6a and 6c). The binding equilibrium was determined in parallel control SILAC experiments as well as the excess of the immobilized compound over its cellular targets, the excess preferably being a molar excess (FIG. 7 and FIG. 8).
Cysteine carbamidomethylation was set as a fixed modification and N-acetyl protein and oxidized methionine were allowed as variable modifications. Spectra that were determined to result from heavy labeled peptides in the pre-search detection of SILAC partners by MaxQuant were searched with the fixed modifications Lys^4, Lys^8, Arg^6 and Arg^10, whereas MS/MS spectra for which no SILAC state could be assigned before database searching were searched with Lys^4, Lys^8, Arg^6 and Arg^10 as variable modifications. The mass tolerance was set to 5 ppm for monoisotopic precursor ions and to 0.5 Da for MS/MS peaks. The minimum peptide length was set to 6 amino acids and up to three missed cleavages and three isotopically labeled amino acids were permitted per peptide. The accepted false discovery rate (FDR) was 1% for the proteins and peptides. The cut-off for the posterior error probability (PEP) of peptides was set to 10%. Peptide PEPs were determined by generating Mascot score and peptide-length-dependent histograms for both the forward and the reverse hits and then deriving the probability of a false identification for a given top-scoring peptide using Bayes' theorem. The PEPs of peptides belonging to the same proteins were then multiplied. Each peptide sequence was considered only once with the lowest PEP determined in case of multiple sequencing of the same isotopic pattern or of peptide species with different SILAC, charge or modification states. Proteins were then sorted according to their products of their peptide PEPs and included until a FDR of 1% was reached according to the fraction of reverse proteins contained in the protein list. In addition to the FDR threshold applied for protein identification, proteins were only included when they were identified with at least two peptides (of which one was required to be unique for the protein) and quantified if at least on quantifiable SILAC pair was associated with them. Outliers were not removed as protein ratios were calculated as the median instead of the average of all peptide ratios. For peptides shared among different identified proteins, SILAC ratios were only considered for the ratio of the protein identified with the highest number of unique peptides. Protein ratios for the different in vitro association experiments were corrected for the initial SILAC pooling ratio, which was determined from the median of protein ratios in pooled SILAC-encoded cell extracts.

As usually defined, the Ki is a measure of affinity in units of concentration, obtained from inhibition or displacement. High values mean a looser hold on the target, low ones a stronger hold on the target. On to `COc1cc2ncnc(Nc3ccc(F)c(Cl)c3)c2cc1OCCCN` [AX14596], for which the Ki stood at 213 µM, the “r (3 mg/1 mg lysate)” value is given as 3.41, the “r (5 h/2.5 h inc. time)” value is recorded as 1.06 and the “rAVERAGE (2. inc/1. inc)” value came to 0.68. Further, the “rAVERAGE (control/1. inc)” value was determined as 0.04.

Source of the values: patent US8959984B2, “Proteome-wide quantification of small molecule binding to cellular target proteins” (priority 2007, dated 2015).
